Common to all, as to format: cell-based
The test system of experiment [1] is cellular global O-GlcNAc level. Put plainly: Global (pan-RL2) O-GlcNAc level by immunoblot. The source says:
After illustrating the potency and generality of the OGTAC strategy, we then assessed its specificity towards the global O-GlcNAc proteome. We quantified the total pan-O-GlcNAc level (except for the specific band for target POI) using immunoblotting. For well-validated OGT substrates such as CK2α relatively low fOGT protein amount is sufficient to facilitate the inducing effect of our OGTAC-1. […] HTN-BRD4:fOGT=1:0.01 condition is not sufficient for OGTAC to exert inducing effects even though ternary complex was formed (FIG. 15). We hypothesize that an optimal threshold of OGT protein levels is required for efficient O-GlcNAc transfer to BRD4. To address the trade-off between potency and specificity on BRD4, we developed a truncated fOGT system. The tetratricopeptide repeat (TPR) domain of fOGT is responsible for substrate recognition; truncation of TPR domain can reduce its activity towards protein substrates. We therefore constructed and compared several truncated fOGT (tfOGT) plasmids.
(§1) In general, cells (from 12 well plate) were lysed by 80 μl RIPA lysis buffer (Thermo Scientic 89901) supplemented with 20 μM OGA inhibitor (Thaimet G, Bidepharm BD571819) and 100X protease inhibitor (MedChemExpress, HY-K0010), incubated on ice for 20 min, spun down at 14,000 RPM at 4° C. for 15 mins, and the supernatant were collected for bicinchoninic acid (BCA) assay and normalizedeto a final 2 mg/mL concentration. About 30 μg of protein samples were loaded for sodium dodecyl sulfatepolyacrylamide gel electrophoresis (SDS-PADE) and blotted with indicated antibodies.
(Immunoblotting shows a protein as a band on a membrane.)

The target in experiment [2] is T1, HTN-BRD4 (Homo sapiens, UniProt O60885+P62942, F37V).
T1 construct: HaloTag fragment; expressed in transfected cells; host or cells: HEK293T
The experiment in a line: IP-WB of HTN-BRD4 O-GlcNAcylation (RL2) in HEK293T cells co-expressing fOGT. As to conditions: for region of induced HTN-BRD4 O-GlcNAcylation: HTN-BRD4:fOGT=1:0.05, truncated/mutant constructs. The procedure: We next assess their potency in inducing HTN-BRD4 O-GlcNAcylation in cell. […]
For each IP reaction, 2.2×10^6 HEK293T cells were seed in 10 cm dish. After cells attached, transfection reagents and plasmids were prepared and added in DMEM. After 24 h transfection, media were replaced by fresh warm complete media with DMSO or probes. For washout study, after 4 h treatment, media with DMSO or OGTAC-4 (500 nM) were replaced by fresh media with DMSO or AP1867 (50 μM) for further incubation. After certain time of OGTACs treatment, cells were collected by cold PBS and lysed by 200 μL complete IP lysis buffer. The lysate was incubated on ice for 20 min, spun down at 14,000 RPM at 4° C. for 15 mins, and the supernatant were collected for bicinchoninic acid (BCA) assay and normalized to a final 2 mg/mL. For input, 20 μL of diluted sample was reacted with equal volume of 10 μM TMR ligand in IP lysis buffer and rotate gently at RT for 15 mins. The remaining samples were subjected to protein A/G magnetic beads (MedChemExpress, HY-K0202), which pre-binding with protein target protein antibody. For samples for LC-MS/MS or HTN-BRD4 mutant constructs. Halo-Trap Magnetic Agarose (Proteintech, otma) was used to incubate with protein lysates. After gentle rotation at 4° C. for at least 16 h, the beads were washed with IP lysis buffer and boiled in 40 μL 2×SDS-loading buffer (Biorad #1610747) for 5 mins to elute proteins from beads. Eluted samples were directly subjected into WB analysis.
as §1

Experiment [3] deals with T2, HTN-CK2α (Homo sapiens, UniProt P68400). Put plainly: Immunoblot of HTN-CK2α O-GlcNAcylation in HeLa cells. As to conditions: 125 nM, 8 h. The procedure: FIG. 12: Immunoblotting analysis of effects of OGTAC-1 on HTN-CK2αin HeLa cell line. HeLa cells were transfected with fOGT:HTN-CK2α=1:0.1 for 24 h, followed by treatment of OGTAC-1 (125 nM) or other probes for 8 h. For OGTAC-1H, ‘++’ denotes 10-fold concentration of OGTAC-1, while “+” denote the same concentration of OGTAC-1. The quantification was conducted by immunoblot signal of RL2 relative to CK2α. as the mean±s.e.m. of n=3 biologically independent experiments. Statistical significance was calculated by unpaired t-tests.
S347 is a well-defined O-GlcNAcylation site on CK2α, while S348 is the potential alternative site as it is adjacent to S347. To verify the O-GlcNAc sites induced by OGTAC-1 in HTN-CK2α. we constructed HTN-CK2α plasmids with S347A and S347A/S348A mutations. […] Collectively, these findings support the physiological relevance of O-GlcNAcylation induced by OGTAC-1.
Target sequence in this assay (P68400 with tags, fused parts or gaps): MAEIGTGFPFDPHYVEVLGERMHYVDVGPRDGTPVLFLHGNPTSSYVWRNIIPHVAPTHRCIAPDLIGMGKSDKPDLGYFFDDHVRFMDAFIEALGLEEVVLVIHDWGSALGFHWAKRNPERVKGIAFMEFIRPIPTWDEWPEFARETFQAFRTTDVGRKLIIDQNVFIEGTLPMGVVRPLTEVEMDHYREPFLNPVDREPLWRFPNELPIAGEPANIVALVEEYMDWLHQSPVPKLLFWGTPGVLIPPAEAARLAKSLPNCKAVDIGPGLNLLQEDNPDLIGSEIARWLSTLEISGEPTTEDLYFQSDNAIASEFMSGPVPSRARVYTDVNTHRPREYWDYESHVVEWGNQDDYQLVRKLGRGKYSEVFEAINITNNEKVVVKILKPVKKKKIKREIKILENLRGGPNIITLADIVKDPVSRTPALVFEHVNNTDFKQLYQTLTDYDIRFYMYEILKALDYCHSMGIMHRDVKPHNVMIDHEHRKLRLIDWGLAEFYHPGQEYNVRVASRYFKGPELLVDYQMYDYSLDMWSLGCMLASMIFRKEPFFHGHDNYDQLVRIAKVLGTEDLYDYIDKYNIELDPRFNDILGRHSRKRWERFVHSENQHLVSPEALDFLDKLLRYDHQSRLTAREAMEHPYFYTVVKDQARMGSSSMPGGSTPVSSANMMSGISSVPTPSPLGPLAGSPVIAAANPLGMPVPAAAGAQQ
Target sequence in this assay (P62942+O15294 fused P62942:F37V partner): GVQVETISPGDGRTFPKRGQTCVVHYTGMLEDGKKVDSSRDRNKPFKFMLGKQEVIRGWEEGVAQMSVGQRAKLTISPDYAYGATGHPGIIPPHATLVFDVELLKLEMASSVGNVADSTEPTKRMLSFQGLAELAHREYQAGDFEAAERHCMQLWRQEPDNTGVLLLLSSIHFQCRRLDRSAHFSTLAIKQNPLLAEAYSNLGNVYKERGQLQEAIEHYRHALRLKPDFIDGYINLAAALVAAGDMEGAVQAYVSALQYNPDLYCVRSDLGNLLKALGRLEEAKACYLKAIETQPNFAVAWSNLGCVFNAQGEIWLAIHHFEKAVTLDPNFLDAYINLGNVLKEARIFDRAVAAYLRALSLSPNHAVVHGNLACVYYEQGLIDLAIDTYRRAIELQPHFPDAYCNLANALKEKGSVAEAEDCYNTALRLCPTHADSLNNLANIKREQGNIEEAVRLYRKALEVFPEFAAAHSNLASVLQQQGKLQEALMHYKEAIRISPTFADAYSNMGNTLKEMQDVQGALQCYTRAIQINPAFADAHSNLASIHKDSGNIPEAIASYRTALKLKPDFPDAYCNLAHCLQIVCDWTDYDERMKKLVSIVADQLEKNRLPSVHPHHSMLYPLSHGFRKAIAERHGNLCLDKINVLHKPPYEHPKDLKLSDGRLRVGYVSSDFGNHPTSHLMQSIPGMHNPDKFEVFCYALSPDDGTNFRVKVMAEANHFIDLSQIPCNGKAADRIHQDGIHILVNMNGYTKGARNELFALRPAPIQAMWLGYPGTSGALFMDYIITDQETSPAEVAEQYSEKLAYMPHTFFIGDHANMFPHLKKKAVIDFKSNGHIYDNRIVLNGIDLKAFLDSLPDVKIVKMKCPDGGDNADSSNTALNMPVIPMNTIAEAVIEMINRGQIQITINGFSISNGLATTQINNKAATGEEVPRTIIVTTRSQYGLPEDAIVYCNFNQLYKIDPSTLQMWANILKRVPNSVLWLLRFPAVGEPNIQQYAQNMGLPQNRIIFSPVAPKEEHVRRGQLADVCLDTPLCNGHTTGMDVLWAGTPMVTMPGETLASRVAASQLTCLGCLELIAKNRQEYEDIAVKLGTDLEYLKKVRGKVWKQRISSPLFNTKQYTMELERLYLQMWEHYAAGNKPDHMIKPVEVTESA

The target of experiment [4] is T2, HTN-CK2α. Put plainly: O-GlcNAcylation of HTN-CK2α with 0tfOGT. The conditions noted are these: vs negative control OGTAC-1H. Set-up: 0TPR(463-1046)-; expressed in transfected cells. The procedure:
FIGS. 18A and 18B: Immunoblotting analysis of the global O-GlcNAcylation inducing effect of truncated OGTAC-4 and OGTAC-1 on HTN-BRD4 and HTN-CK2α respectively. (A), O-GlcNAcylation inducing effect of OGTAC-4 is dependent on the expression of 0tfOGT. […] The quantification was conducted by immunoblot signal of probe treatment/control as the mean±s.e.m. of n=2 biologically independent experiments. TR, transfection reagent.
Target sequence in this assay (P68400 with tags, fused parts or gaps): as the sequence (P68400 with tags, fused parts or gaps) above
Target sequence in this assay (P62942+O15294 fused P62942:F37V partner): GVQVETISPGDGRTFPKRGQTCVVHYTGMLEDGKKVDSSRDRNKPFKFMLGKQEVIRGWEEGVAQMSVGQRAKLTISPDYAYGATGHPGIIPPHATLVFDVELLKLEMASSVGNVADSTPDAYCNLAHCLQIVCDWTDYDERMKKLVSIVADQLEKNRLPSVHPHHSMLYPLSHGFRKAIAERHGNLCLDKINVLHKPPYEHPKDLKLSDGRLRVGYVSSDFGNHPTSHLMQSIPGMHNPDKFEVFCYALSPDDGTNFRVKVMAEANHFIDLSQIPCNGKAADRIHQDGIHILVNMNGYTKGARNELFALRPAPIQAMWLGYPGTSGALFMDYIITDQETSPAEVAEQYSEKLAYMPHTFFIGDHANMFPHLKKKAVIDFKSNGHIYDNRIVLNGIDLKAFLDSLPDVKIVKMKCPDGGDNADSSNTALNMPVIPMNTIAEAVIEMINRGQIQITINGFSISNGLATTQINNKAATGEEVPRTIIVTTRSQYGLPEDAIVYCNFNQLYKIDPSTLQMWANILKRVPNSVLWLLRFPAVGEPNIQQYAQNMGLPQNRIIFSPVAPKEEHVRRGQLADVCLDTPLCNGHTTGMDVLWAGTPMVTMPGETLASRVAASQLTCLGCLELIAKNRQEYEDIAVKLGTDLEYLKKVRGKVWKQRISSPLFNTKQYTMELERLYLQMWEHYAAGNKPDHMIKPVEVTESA

“Also recorded” adds a separate entry of the source.

T1 sequence (P62942 whole entry F37V, stated change not applied, other chains not shown, the tested form may be a part): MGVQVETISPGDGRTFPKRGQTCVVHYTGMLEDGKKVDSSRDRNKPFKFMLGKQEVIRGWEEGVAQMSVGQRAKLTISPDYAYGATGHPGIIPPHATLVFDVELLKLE

`CC[C@H](C(=O)N1CCCC[C@H]1C(=O)O[C@H](CCc1ccc(OC)c(OC)c1)c1cccc(OCC(=O)NCCOCCOCCCCCCCl)c1)c1cc(OC)c(OC)c(OC)c1` [OGTAC-1, (R)-1-(3-(2-((2-(2-((6-chlorohexyl)oxy)ethoxy)ethyl)amino)-2-oxoethoxy)phenyl)-3-(3,4-dimethoxyphenyl)propyl (S)-1-((S)-2-(3,4,5-trimethoxyphenyl)butanoyl) piperidine-2-carboxylate]: the “cellular global O-GlcNAc level” value in experiment [1] (125 nM, HTN-CK2α:fOGT=1:0.01) is “not significantly changed”. In addition, the pan-RL2 level result in experiment [1] (HTN-BRD4:fOGT system, dose-response, 4 h) is reported as “not affected”. In addition, in experiment [2], the “efficacy as O-GlcNAcylation inducer” value is given as “submicromolar efficacy” and the “region of induced HTN-BRD4 O-GlcNAcylation” value is “C-terminal region (S1367-F1224)”. Moreover, the “fold increase of RL2 signal of BRD4” value in experiment [2] (640 nM, 2 h) is on record as 2.5 fold. Besides, the “fold increase of RL2 signal of BRD4” value in experiment [2] (640 nM, 4 h) was “around 2.8 fold”. Besides, the “HTN-BRD4 O-GlcNAcylation inducing potency” value in experiment [2] (5 μM, 4 h) was “best O-GlcNAcylation inducing potency among three OGTACs; also recorded: outstanding potency”. For the same molecule, the “concentration from which inducing effect declined (hook effect)” value in experiment [2] (4 h) was determined as 1.6 µM. The “effect on HTN-CK2α in HeLa cells” value in experiment [3] is “confirmed the effect”. The “O-GlcNAcylation level of HTN-CK2α with 0tfOGT” value in experiment [4] is given as “higher O-GlcNAcylation level”.

In the case of `CC[C@H](C(=O)N1CCCC[C@H]1C(=O)O[C@H](CCc1ccc(OC)c(OC)c1)c1cccc(OCC(=O)NCCCCCCNC(=O)C[C@@H]2N=C(c3ccc(Cl)cc3)c3c(sc(C)c3C)-n3c(C)nnc32)c1)c1cc(OC)c(OC)c(OC)c1` [OGTAC-4, (R)-1-(3-(2-((6-(2-((S)-4-(4-chlorophenyl)-2,3,9-trimethyl-6H-thieno[3,2-f[]8 1,2,4]triazolo[4,3-a][1,4]diazepin-6-yl)acetamido)hexyl)amino)-2-oxoethoxy)phenyl)-3-(3,4-dimethoxyphenyl)propyl (S)-1-((S)-2-(3,4,5-trimethoxyphenyl)butanoyl)piperidine-2-carboxylate], in experiment [1] (0tfOGT:HTN-BRD4 system), the “global O-GlcNAc level” value was “without disruption of global O-GlcNAc level”. For the same molecule, in experiment [1] (HTN-BRD4:0tfOGT, washout study), the “global O-GlcNAc levels during reversibility study” value is “remained unchanged”. In experiment [2], the “efficacy as O-GlcNAcylation inducer” value was “submicromolar efficacy” and the “region of induced HTN-BRD4 O-GlcNAcylation” value is listed as “C-terminal region (S1367-F1224)”. For the same molecule, in experiment [2] (640 nM), the “time at which O-GlcNAcylation of HTN-BRD4 was induced” value was ≤ 2 h. In experiment [2] (640 nM, longest time point), the “time of peak induction of HTN-BRD4 O-GlcNAcylation” value is on record as 24 h. Moreover, the “lowest concentration promoting BRD4 O-GlcNAcylation and ternary complex” value in experiment [2] (4 h, 3 nM conducted once) worked out at 3 nM. In addition, the “O-GlcNAcylation inducing effect on HTN-BRD4” value in experiment [2] (HTN-BRD4:fOGT=1:0.01 system) is “No O-GlcNAcylation inducing effect”.

Source of the values: patent publication US20250035641A1, “COMPOSITIONS AND METHODS RELATED TO PROTEIN LABELING” (The Chinese University of Hong Kong, priority 2023, published 2025).
